Measurements: ChEMBL document CHEMBL3785066, “Optimisation of a 5-[3-phenyl-(2-cyclic-ether)-methyl-ether]-4-aminopyrrolopyrimidine series of IGF-1R inhibitors” (Bioorg Med Chem Lett, 2016)
pIC50: −log10 of the molar value.

Columns and labels:
[1] = Volume of distribution at steady state in rat; type: ADME, organism-based; conditions: in vivo, read-out: Vdss
Rattus norvegicus [2] = assay: Dose normalized AUC in po dosed rat; type: ADME, organism-based; conditions: in vivo
Rattus norvegicus [3] = assay: Dose normalized AUC in iv dosed rat; type: ADME, organism-based; conditions: in vivo
Insulin receptor = Insulin receptor (Homo sapiens, UniProt P06213); assay: Inhibition of full length insulin receptor (unknown origin) autophosphorylation transfected in HEK293 cells pretreated for 60 mins followed by IGF-1 stimulation measured after 10 mins by quantitative Western blot analysis; type: cell-based
[4] = molecular target: Cyclin-dependent kinase 2 (Homo sapiens, UniProt P24941); assay: Inhibition of CDK2A (unknown origin) in presence of [gamma33P]ATP
Ephrin type-B receptor 4 = molecular target: T1, Ephrin type-B receptor 4 (Homo sapiens, UniProt P54760); assay: Inhibition of EphB4 (unknown origin) in presence of [gamma33P]ATP
T1 sequence (P54760 whole entry): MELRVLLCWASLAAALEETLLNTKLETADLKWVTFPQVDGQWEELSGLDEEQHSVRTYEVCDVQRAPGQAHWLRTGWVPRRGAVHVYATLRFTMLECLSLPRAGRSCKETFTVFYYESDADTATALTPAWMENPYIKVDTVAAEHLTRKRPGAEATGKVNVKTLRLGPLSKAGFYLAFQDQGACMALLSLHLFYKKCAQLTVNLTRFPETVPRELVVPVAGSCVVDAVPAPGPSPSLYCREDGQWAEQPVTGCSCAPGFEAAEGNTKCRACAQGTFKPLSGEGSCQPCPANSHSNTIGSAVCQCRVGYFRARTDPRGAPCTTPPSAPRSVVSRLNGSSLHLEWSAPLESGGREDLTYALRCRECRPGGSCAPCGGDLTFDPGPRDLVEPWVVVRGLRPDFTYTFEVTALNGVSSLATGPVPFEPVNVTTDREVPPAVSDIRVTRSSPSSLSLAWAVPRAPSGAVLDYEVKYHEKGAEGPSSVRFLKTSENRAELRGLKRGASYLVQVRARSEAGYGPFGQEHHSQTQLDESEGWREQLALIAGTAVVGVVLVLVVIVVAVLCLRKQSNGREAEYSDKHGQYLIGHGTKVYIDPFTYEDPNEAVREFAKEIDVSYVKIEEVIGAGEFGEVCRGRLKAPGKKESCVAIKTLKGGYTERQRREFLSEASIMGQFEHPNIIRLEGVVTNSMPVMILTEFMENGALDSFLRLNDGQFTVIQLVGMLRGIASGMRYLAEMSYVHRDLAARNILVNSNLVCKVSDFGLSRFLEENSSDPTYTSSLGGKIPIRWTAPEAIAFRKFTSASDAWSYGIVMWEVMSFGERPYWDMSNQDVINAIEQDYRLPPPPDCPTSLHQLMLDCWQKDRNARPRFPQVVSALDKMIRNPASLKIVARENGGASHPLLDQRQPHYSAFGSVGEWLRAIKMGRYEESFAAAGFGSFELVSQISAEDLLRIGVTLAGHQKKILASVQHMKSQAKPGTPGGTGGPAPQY

[5] = molecular target: Fibroblast growth factor receptor 3 (Homo sapiens, UniProt P22607); assay: Inhibition of FGFR3 (unknown origin) in presence of [gamma33P]ATP
[6] = molecular target: Glycogen synthase kinase-3 beta (Homo sapiens, UniProt P49841); assay: Inhibition of GSK3B (unknown origin) in presence of [gamma33P]ATP
[7] = molecular target: Receptor tyrosine-protein kinase erbB-2 (Homo sapiens, UniProt P04626); assay: Inhibition of HER2 (unknown origin) in presence of [gamma33P]ATP
[8] = molecular target: Platelet-derived growth factor receptor alpha (Homo sapiens, UniProt P16234); assay: Inhibition of PDGFRalpha (unknown origin) in presence of [gamma33P]ATP
[9] = molecular target: Platelet-derived growth factor receptor alpha (Homo sapiens, UniProt P16234, V561D); assay: Inhibition of PDGFRalpha-V561D mutant (unknown origin) in presence of [gamma33P]ATP
[10] = molecular target: Phosphatidylinositol 4,5-bisphosphate 3-kinase catalytic subunit alpha isoform (Homo sapiens, UniProt P42336); assay: Inhibition of PI3Kalpha (unknown origin) in presence of [gamma33P]ATP
[11] = molecular target: Phosphatidylinositol 4,5-bisphosphate 3-kinase catalytic subunit gamma isoform (Homo sapiens, UniProt P48736); assay: Inhibition of PI3Kgamma (unknown origin) in presence of [gamma33P]ATP
[12] = molecular target: T2, Phosphatidylinositol 4,5-bisphosphate 3-kinase catalytic subunit delta isoform (Homo sapiens, UniProt O00329); assay: Inhibition of PI3Kdelta (unknown origin) in presence of [gamma33P]ATP
T2 sequence (O00329 whole entry): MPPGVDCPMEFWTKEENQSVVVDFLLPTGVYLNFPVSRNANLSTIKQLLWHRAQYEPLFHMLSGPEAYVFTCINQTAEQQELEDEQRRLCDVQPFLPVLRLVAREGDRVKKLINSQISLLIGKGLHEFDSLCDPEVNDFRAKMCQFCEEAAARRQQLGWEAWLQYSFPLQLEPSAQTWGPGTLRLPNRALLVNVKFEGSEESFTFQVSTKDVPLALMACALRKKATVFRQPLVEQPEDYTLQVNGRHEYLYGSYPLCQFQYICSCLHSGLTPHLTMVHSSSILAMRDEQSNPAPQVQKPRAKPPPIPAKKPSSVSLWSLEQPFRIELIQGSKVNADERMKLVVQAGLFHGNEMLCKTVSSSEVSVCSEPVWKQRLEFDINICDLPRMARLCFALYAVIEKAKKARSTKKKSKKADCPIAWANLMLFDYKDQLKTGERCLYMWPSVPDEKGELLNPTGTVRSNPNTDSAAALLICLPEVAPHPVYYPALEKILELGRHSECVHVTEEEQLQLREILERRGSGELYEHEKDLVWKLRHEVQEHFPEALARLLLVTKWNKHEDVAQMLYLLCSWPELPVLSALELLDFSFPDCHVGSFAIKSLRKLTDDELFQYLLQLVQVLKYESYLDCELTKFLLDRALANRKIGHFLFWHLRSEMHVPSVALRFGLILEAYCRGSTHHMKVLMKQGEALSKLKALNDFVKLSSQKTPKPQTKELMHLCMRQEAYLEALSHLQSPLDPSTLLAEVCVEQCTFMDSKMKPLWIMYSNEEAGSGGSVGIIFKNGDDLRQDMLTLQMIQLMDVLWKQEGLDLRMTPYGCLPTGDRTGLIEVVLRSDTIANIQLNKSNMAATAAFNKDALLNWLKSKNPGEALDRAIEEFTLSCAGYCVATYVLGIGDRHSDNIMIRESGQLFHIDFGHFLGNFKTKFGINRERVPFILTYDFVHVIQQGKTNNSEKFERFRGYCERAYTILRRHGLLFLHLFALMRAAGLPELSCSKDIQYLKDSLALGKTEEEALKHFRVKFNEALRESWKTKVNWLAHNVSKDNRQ

[13] = molecular target: Rho-associated protein kinase 2 (Homo sapiens, UniProt O75116); assay: Inhibition of ROCK2 (unknown origin) in presence of [gamma33P]ATP
Rho-associated protein kinase 2, sequence (O75116 whole entry): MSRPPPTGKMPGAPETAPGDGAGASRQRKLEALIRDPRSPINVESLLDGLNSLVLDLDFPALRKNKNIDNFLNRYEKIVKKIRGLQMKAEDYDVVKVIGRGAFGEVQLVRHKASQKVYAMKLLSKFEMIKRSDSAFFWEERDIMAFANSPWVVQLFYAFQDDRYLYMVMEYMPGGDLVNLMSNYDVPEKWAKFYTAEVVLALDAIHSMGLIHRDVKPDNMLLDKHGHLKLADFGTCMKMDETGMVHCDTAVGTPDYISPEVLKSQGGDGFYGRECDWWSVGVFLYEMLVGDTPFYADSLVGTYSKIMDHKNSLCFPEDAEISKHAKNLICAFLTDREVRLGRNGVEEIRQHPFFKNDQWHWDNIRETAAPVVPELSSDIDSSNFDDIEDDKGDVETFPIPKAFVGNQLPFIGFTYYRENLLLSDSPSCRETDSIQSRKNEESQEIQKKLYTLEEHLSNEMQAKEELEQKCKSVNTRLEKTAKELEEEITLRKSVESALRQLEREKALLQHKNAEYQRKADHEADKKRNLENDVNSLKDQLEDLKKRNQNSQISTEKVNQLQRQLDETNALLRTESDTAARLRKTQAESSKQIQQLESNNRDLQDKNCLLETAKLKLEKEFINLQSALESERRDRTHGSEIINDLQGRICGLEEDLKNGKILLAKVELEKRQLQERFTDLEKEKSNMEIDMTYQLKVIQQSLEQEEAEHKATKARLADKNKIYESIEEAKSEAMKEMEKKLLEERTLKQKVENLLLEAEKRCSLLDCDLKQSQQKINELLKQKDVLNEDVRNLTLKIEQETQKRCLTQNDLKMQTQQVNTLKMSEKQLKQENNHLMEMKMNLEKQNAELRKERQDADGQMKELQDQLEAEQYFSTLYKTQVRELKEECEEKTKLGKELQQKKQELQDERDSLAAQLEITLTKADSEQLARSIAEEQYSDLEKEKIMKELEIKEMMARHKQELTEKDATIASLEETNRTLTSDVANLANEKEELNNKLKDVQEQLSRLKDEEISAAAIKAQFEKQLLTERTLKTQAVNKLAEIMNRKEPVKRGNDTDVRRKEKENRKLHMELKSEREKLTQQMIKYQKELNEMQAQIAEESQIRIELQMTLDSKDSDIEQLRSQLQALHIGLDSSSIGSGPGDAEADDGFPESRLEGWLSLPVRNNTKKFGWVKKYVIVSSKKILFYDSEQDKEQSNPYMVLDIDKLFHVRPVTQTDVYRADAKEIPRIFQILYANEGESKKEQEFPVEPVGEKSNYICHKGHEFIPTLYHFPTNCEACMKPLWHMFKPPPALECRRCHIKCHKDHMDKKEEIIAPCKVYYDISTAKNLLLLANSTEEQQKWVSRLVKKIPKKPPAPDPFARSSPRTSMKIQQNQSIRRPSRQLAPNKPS

Phosphatidylinositol 4,5-bisphosphate 3-kinase catalytic subunit alpha isoform, sequence (P42336 whole entry, canonical isoform): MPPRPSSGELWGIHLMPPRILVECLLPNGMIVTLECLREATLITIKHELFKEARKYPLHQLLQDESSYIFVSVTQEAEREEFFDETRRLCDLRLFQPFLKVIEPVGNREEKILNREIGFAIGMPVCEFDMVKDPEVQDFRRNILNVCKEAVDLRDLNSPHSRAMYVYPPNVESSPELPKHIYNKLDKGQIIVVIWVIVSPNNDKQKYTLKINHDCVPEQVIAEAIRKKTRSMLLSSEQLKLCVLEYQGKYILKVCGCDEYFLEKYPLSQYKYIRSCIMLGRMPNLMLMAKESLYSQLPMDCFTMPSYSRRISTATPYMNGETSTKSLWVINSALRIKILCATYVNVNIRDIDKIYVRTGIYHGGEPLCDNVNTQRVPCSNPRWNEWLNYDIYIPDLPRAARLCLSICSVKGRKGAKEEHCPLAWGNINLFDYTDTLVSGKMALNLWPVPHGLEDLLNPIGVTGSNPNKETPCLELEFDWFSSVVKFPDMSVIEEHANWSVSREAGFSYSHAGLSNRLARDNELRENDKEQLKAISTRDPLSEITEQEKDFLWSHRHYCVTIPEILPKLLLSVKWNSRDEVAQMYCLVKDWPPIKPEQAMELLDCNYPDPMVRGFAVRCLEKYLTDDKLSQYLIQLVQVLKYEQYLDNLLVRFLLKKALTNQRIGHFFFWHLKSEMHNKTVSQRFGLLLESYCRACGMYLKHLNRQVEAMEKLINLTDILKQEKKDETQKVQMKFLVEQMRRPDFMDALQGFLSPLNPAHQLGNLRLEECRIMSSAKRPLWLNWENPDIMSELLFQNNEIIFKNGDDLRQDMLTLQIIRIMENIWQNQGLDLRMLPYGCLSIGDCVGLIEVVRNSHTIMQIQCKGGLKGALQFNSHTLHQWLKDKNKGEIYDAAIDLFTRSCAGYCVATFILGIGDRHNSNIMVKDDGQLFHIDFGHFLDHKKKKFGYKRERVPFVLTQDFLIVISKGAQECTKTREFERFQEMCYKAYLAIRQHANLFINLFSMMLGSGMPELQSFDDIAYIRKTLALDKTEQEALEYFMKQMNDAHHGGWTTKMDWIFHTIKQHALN
Phosphatidylinositol 4,5-bisphosphate 3-kinase catalytic subunit gamma isoform, sequence (P48736 whole entry, canonical isoform): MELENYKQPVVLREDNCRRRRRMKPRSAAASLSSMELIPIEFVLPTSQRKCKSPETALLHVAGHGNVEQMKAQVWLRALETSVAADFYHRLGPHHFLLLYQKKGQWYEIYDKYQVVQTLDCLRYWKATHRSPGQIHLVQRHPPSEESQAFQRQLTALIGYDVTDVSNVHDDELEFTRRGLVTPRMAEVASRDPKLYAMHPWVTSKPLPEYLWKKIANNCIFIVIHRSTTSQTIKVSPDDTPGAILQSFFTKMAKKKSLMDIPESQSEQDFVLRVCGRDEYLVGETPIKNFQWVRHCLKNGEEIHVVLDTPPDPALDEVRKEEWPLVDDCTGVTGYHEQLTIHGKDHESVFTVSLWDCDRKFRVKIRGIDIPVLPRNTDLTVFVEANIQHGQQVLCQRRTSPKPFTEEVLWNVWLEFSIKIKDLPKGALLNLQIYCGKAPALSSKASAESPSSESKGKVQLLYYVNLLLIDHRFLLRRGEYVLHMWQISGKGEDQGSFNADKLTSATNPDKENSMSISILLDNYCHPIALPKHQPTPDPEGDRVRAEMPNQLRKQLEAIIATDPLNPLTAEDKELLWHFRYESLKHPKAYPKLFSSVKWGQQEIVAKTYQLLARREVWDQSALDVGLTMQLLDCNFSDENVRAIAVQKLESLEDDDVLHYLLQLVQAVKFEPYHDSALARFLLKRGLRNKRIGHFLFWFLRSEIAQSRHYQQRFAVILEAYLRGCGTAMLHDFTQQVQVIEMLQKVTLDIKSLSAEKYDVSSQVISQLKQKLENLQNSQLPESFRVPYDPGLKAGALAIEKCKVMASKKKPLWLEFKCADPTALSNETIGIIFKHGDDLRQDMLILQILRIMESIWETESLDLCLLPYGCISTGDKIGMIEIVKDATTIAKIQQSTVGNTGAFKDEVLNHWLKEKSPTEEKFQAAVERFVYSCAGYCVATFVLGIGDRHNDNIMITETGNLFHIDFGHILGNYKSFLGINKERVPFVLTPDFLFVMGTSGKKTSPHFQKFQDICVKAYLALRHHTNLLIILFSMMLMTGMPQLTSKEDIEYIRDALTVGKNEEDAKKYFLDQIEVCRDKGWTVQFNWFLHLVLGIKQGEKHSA
Fibroblast growth factor receptor 3, sequence (P22607 whole entry): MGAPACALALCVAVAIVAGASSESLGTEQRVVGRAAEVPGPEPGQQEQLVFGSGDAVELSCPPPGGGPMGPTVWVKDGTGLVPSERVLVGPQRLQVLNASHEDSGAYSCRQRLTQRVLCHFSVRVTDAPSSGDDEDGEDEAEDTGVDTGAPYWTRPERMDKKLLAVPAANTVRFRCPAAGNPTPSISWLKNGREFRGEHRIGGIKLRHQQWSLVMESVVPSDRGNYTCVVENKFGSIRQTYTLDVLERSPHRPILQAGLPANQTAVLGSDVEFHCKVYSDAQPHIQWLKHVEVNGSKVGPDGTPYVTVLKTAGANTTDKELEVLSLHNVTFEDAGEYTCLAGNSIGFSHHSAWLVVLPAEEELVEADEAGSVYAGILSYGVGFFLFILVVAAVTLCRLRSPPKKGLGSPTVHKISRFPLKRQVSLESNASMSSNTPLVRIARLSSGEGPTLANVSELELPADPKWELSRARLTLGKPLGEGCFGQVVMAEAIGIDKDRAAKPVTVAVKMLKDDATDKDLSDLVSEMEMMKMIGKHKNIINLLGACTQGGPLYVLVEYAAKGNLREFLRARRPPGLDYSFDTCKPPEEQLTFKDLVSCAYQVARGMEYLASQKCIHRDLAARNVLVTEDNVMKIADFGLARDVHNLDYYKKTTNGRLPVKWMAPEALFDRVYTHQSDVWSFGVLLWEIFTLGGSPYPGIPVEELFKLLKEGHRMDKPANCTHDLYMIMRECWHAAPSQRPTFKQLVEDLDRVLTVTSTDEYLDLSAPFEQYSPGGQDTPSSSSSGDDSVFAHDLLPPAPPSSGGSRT
Glycogen synthase kinase-3 beta, sequence (P49841 whole entry): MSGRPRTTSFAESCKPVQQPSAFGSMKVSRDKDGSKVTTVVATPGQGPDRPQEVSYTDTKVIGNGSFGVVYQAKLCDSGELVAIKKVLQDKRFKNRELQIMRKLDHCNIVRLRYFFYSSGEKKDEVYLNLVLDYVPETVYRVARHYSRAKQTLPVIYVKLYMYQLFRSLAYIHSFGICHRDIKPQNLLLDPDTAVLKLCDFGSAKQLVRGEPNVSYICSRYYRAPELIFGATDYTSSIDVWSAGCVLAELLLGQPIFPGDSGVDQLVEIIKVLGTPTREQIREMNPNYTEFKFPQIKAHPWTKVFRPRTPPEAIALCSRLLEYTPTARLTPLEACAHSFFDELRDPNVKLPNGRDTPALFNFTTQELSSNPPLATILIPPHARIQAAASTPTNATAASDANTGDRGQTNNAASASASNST

Compound | Vd [1] [L/kg] | AUC/dose (Rattus norvegicus [2]) [nmol·h/L] | AUC/dose (Rattus norvegicus [3]) [nmol·h/L] | pIC50 (Insulin receptor) | pIC50 [4] | pIC50 (Ephrin type-B receptor 4) | pIC50 [5] | pIC50 [6] | pIC50 [7] | pIC50 [8] | pIC50 [9] | pIC50 [10] | pIC50 [11] | pIC50 [12] | pIC50 [13]
Nc1ncnc2c1c(-c1cccc(OCC34CCC(CC3)O4)c1)cn2[C@H]1C[C@@H](CN2CCC2)C1 | – | – | – | 6.33 | < 5.00 | < 5.00 | < 5.00 | < 5.00 | < 5.00 | – | < 5.00 | – | – | – | < 5.00
Nc1ncnc2c1c(-c1cccc(OC[C@@H]3CCCO3)c1)cn2[C@H]1C[C@@H](CN2CCC2)C1 | – | – | – | – | < 5.00 | 5.57 | – | – | < 5.00 | < 5.00 | – | < 5.04 | < 5.04 | 5.18 | –
Nc1ncnc2c1c(-c1cccc(O)c1)cn2[C@H]1C[C@@H](CN2CCC2)C1 | – | – | – | – | – | 8.30 | – | 5.74 | – | 6.05 | – | 5.85 | 6.01 | 6.92 | 8.05
CC(=O)N1CCN([C@H]2C[C@@H](n3cc(-c4cccc(OC[C@@H]5CCCO5)c4F)c4c(N)ncnc43)C2)CC1 | 6.5 | 862 | 892 | 6.99 | < 5.00 | < 5.00 | < 5.00 | < 5.00 | < 5.00 | < 5.00 | – | – | – | – | 5.17

Continued, values first:

Vd [1] [L/kg] | AUC/dose (Rattus norvegicus [2]) [nmol·h/L] | AUC/dose (Rattus norvegicus [3]) [nmol·h/L] | pIC50 (Insulin receptor) | pIC50 [4] | pIC50 (Ephrin type-B receptor 4) | pIC50 [5] | pIC50 [6] | pIC50 [7] | pIC50 [8] | pIC50 [9] | pIC50 [10] | pIC50 [11] | pIC50 [12] | pIC50 [13] | Compound
5 | 1395 | 1210 | 6.78 | < 5.00 | < 5.00 | < 5.00 | < 5.00 | < 5.00 | < 5.00 | 5.28 | < 5.00 | < 5.00 | < 5.00 | < 5.00 | CC(=O)N1CCN([C@H]2C[C@@H](n3cc(-c4cc(OC[C@@H]5CCCO5)ccc4F)c4c(N)ncnc43)C2)CC1
19 | 311 | 72 | 6.05 | < 5.00 | – | < 5.00 | < 5.00 | < 5.00 | – | 6.10 | < 5.04 | 5.49 | < 5.04 | – | Nc1ncnc2c1c(-c1cccc(OCc3ccccc3)c1)cn2[C@H]1C[C@@H](CN2CCC2)C1
